Source: ChEMBL document CHEMBL4359851, “Design, synthesis, and biological evaluation of a new class of histone acetyltransferase p300 inhibitors” (Eur J Med Chem, 2019)
Active and inactive are the calls of the source. No cut-off for these calls is given here.

Tests used:
[1] = target: T1, Histone acetyltransferase p300 (Homo sapiens, UniProt Q09472); assay: Inhibition of p300 (unknown origin) using biotinylated histone H3 (1 to 21 residues) as substrate measured after 90 mins in presence of Acetyl CoA by AlphaLISA assay
[2] = test system: MCF7; assay: Antiproliferative activity against HER2-negative human MCF7 cells measured after 6 days of incubation by sulforhodamine B assay; type: functional, cell-based; details: MCF7, 144 h
[3] = test system: T47D; assay: Antiproliferative activity against HER2-negative human T47D cells measured after 6 days of incubation by sulforhodamine B assay; type: functional, cell-based; details: 144 h
[4] = target: T1, Histone acetyltransferase p300; assay: Inhibition of p300 in human U2932 cells assessed as reduction in H3K27 acetylation at 10 uM measured after 4 days in presence of EZH2 inhibitor EPZ6438 by Western blot analysis; type: cell-based
[5] = Solubility of compound in water; type: physicochemical; details: buffer
[6] = Solubility of compound in ethyl acetate; type: physicochemical
[7] = Reactivity with dithiothretol assessed as addition product with thiol group measured within 1 hr by mass spectrometry; type: physicochemical
[8] = Reactivity with glutathione assessed as addition product with thiol group measured within 1 hr by mass spectrometry; type: physicochemical
[9] = target: Histone deacetylase 1 (Homo sapiens, UniProt Q13547); assay: Inhibition of recombinant HDAC1 (unknown origin) measured after 30 mins by fluorescence assay
[10] = target: Histone deacetylase 2 (Homo sapiens, UniProt Q92769); assay: Inhibition of recombinant HDAC2 (unknown origin) measured after 30 mins by fluorescence assay
[11] = target: Histone deacetylase 3 (Homo sapiens, UniProt O15379); assay: Inhibition of recombinant HDAC3 (unknown origin) measured after 30 mins by fluorescence assay
[12] = target: T2, Protein deacetylase HDAC6 (Homo sapiens, UniProt Q9UBN7); assay: Inhibition of recombinant HDAC6 (unknown origin) measured after 30 mins by fluorescence assay
T2 sequence (Q9UBN7 whole entry): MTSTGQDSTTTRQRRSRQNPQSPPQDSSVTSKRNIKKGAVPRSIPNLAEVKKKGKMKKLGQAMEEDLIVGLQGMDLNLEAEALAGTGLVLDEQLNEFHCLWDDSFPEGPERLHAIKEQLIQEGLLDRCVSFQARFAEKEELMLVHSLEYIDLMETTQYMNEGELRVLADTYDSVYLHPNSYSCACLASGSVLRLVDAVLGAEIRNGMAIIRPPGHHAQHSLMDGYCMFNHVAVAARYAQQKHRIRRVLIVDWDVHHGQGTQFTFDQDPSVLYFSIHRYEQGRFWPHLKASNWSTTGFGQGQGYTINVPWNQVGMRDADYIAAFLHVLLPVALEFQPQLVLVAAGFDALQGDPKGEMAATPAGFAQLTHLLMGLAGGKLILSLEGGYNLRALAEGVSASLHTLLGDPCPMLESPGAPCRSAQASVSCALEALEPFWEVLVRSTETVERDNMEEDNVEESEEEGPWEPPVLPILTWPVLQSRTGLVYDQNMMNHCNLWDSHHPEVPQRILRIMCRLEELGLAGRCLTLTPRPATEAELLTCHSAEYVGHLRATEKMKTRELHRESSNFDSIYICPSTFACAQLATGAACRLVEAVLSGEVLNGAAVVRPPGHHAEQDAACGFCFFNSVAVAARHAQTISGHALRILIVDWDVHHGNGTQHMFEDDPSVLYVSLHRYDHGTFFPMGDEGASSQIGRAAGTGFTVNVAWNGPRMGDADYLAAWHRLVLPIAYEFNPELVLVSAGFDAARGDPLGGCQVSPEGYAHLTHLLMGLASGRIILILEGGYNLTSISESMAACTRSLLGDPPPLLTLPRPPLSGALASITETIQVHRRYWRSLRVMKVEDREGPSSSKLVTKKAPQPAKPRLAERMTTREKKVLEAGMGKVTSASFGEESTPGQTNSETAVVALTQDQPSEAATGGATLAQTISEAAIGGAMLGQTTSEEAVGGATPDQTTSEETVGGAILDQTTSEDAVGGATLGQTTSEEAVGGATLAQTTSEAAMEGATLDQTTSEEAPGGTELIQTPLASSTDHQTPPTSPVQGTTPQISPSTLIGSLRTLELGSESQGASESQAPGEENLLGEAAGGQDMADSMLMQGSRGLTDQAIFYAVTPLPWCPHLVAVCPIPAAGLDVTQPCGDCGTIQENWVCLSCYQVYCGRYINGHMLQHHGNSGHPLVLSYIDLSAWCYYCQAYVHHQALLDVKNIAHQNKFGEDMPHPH

[13] = target: T3, Histone deacetylase 8 (Homo sapiens, UniProt Q9BY41); assay: Inhibition of recombinant HDAC8 (unknown origin) measured after 30 mins by fluorescence assay
T3 sequence (Q9BY41 whole entry): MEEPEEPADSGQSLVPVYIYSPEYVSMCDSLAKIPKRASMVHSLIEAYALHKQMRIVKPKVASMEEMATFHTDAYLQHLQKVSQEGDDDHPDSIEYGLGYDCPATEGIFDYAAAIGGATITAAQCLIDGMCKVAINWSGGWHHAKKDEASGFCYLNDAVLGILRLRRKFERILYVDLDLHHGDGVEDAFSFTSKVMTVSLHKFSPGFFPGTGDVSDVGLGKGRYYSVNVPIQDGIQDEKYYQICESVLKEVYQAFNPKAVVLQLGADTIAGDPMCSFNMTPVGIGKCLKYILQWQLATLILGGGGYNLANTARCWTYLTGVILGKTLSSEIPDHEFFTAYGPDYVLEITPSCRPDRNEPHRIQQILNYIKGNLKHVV

[14] = Reactivity with dithiothretol assessed as addition product with thiol group measured after 6 hrs by mass spectrometry; type: physicochemical
[15] = Reactivity with glutathione assessed as addition product with thiol group measured after 6 hrs by mass spectrometry; type: physicochemical
[16] = Reactivity with dithiothretol assessed as addition product with thiol group measured at 50 degC by mass spectrometry; type: physicochemical
[17] = Reactivity with glutathione assessed as addition product with thiol group measured at 50 degC by mass spectrometry; type: physicochemical

T1 sequence (Q09472 whole entry, the tested form may be a part): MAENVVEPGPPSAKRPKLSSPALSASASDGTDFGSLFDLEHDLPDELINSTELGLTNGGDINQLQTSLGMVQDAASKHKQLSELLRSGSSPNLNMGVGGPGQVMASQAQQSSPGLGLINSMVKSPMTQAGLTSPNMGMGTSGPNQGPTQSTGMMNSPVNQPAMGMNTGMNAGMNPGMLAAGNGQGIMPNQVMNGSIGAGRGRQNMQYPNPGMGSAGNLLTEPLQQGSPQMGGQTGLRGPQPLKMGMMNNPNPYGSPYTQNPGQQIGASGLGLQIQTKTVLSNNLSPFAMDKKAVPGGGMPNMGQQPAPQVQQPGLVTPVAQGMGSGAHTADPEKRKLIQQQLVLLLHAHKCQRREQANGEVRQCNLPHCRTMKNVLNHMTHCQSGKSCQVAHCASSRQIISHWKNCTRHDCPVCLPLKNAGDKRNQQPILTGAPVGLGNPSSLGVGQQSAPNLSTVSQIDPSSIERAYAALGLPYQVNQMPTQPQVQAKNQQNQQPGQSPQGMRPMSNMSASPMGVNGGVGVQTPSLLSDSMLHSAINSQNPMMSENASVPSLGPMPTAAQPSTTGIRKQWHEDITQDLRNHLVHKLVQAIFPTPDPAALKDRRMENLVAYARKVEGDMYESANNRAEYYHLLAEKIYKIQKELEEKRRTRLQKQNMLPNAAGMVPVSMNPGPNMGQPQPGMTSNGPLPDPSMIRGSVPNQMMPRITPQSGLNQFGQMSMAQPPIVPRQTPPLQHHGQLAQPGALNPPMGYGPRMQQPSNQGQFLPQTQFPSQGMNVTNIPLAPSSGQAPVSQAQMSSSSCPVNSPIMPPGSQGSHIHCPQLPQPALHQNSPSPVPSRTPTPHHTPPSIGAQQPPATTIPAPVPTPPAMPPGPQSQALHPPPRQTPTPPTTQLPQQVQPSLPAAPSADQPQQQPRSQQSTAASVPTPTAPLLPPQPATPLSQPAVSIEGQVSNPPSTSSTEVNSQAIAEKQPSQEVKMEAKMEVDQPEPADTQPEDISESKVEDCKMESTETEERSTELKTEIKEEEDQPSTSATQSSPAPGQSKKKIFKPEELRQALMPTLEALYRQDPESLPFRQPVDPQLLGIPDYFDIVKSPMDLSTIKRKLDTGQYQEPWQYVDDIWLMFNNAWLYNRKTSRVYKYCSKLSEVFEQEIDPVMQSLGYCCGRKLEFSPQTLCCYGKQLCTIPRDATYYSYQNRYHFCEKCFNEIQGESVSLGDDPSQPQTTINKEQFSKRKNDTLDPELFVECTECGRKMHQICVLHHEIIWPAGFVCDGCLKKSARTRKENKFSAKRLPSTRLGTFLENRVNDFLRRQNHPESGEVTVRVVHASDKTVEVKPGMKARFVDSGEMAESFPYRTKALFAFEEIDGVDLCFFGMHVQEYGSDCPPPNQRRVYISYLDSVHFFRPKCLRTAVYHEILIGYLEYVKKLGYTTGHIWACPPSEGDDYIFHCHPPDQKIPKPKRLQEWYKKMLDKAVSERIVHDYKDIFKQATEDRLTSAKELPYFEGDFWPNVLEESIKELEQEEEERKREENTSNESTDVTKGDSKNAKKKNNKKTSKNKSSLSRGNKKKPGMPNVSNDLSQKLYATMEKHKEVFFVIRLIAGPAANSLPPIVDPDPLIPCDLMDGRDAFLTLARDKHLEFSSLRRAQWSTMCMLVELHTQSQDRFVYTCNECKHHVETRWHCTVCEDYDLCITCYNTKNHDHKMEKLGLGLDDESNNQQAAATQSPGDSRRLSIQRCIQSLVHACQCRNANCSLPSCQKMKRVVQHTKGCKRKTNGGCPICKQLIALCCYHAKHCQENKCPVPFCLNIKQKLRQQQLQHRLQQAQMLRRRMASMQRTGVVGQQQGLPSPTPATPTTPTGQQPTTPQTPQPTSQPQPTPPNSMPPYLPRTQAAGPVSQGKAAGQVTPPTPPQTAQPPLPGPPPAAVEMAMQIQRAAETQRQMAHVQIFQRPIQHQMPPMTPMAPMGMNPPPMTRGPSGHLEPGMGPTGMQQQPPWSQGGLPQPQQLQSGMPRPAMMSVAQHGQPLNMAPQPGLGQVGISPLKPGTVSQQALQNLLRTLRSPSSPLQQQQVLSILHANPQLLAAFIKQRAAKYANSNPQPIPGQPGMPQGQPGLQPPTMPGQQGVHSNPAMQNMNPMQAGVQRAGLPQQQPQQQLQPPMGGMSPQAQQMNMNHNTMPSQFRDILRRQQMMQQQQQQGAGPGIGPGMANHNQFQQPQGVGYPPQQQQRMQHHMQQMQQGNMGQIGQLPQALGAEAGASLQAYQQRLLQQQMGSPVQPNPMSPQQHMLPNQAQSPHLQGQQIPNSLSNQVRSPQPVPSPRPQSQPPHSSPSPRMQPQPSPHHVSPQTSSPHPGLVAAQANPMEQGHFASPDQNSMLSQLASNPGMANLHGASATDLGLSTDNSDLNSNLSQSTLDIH
Chain of Histone deacetylase 2 (Q92769 whole entry): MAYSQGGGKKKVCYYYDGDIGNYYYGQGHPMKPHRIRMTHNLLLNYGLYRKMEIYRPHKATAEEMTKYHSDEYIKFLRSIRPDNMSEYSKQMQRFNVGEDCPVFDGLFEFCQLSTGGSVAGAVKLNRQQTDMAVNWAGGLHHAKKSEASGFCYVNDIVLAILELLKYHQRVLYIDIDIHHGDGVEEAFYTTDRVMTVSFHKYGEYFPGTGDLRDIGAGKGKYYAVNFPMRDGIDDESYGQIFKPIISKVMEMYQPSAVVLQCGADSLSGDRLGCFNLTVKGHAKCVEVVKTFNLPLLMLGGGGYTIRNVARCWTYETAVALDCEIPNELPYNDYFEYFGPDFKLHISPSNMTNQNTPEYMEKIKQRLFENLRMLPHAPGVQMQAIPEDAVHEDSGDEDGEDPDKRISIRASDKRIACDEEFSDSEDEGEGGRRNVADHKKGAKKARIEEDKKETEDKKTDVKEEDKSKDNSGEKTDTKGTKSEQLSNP
Chain of Histone deacetylase 3 (O15379 whole entry): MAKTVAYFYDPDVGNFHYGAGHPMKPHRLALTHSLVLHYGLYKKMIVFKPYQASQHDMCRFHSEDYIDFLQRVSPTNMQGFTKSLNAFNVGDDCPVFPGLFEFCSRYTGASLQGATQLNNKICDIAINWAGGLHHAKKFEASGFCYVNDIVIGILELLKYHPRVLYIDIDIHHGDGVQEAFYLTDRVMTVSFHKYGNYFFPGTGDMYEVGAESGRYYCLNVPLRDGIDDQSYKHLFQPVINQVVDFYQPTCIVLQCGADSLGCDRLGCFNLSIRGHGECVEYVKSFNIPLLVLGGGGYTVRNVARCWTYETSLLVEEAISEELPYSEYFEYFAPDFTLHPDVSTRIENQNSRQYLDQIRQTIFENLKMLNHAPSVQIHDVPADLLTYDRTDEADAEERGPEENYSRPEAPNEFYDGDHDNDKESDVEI
Chain of Histone deacetylase 1 (Q13547 whole entry): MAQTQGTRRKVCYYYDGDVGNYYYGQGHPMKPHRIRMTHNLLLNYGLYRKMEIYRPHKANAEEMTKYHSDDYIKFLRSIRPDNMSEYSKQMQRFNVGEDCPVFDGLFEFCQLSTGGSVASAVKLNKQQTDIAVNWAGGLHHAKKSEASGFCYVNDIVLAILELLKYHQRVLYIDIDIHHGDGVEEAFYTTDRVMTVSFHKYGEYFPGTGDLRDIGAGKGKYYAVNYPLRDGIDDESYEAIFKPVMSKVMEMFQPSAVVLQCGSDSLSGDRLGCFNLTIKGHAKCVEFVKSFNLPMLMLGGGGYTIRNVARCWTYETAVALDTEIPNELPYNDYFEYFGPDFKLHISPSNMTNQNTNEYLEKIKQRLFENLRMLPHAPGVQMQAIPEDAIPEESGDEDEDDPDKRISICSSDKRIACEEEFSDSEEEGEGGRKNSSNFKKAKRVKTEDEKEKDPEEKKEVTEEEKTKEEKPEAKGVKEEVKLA

For `CC1=NN(c2ccc(C(=O)O)cc2)C(=O)/C1=C\c1ccc(-c2cc(C)c(C)cc2[N+](=O)[O-])s1`, the IC50 [1] was 230 nM, the IC50 [2] was 27.3 µM and the IC50 [3] was 8.92 µM. For the same molecule, the inhibition [4] was “Active”.
For `CC1=NN(c2ccc(C(=O)O)cc2)C(=O)/C1=C\c1ccc(-c2cc(C)c(C)cc2C(F)(F)F)o1`, the IC50 [1] was 290 nM, the IC50 [2] was 10.9 µM and the IC50 [3] was 6.19 µM. For the same molecule, the inhibition [4] was “Active”.
For `Cc1cc(-c2ccc(/C=C3/SC(=O)N(c4ccc(C(=O)O)cc4)C3=O)o2)c([N+](=O)[O-])cc1C`, the IC50 [1] was > 10000 nM.
For `CC1=NN(c2ccc(C(=O)O)cc2)C(=O)/C1=C\c1cnc(-c2cc(C)c(C)cc2[N+](=O)[O-])s1`, the IC50 [1] was 860 nM.
`Cc1cc(-c2ccc(/C=C3\C(=O)N(c4ccc(C(=O)O)cc4)N=C3C3CC3)o2)c([N+](=O)[O-])cc1C` showed an IC50 [1] of 200 nM.
In the case of `CC1=NN(c2ccc(C(=O)O)cc2)C(=O)C1CCC(=O)Nc1cc(C)c(C)cc1[N+](=O)[O-]` (stereo not given), the IC50 [1] is reported as > 10000 nM.
With `Cc1cc(-c2ccc(/C=C3/NC(=O)N(c4ccc(C(=O)O)cc4)C3=O)o2)c([N+](=O)[O-])cc1C` the IC50 [1] was > 10000 nM.
`CC1=NN(c2ccc(C(=O)O)cc2)C(=O)/C1=C\c1ccc(-c2ccccc2[N+](=O)[O-])o1` showed an IC50 [1] of 560 nM.
With `CC1=NN(c2ccc(C(=O)O)cc2)C(=O)/C1=C\c1ccc(-c2cccc3c2C(=O)CC3)o1` the IC50 [1] was 580 nM, the IC50 [2] was 26.8 µM and the IC50 [3] was 10 µM. For the same molecule, the inhibition [4] was “Active”.
In the case of `CC1=NN(c2cc(F)c(O)c(F)c2)C(=O)/C1=C\c1ccc(-c2cc(C)c(C)cc2[N+](=O)[O-])o1`, the IC50 [1] is reported as 4800 nM, the inhibition [4] is reported as “Active” and the solubility [5] is reported as “Soluble”. The solubility [6] was “Soluble”.
For `Cc1cc(Cc2ccc3c(cnn3-c3ccc(C(=O)O)cc3)c2)c([N+](=O)[O-])cc1C`, the IC50 [1] was > 10000 nM.
`CC1=NN(c2ccc(C(=O)O)cc2)C(=O)/C1=C\c1ccc(-c2cc(C)c(C)cc2[N+](=O)[O-])[nH]1` showed an IC50 [1] of 1950 nM.
Molecule `CC1=NN(c2ccc(C#N)cc2)C(=O)/C1=C\c1ccc(-c2cc(C)c(C)cc2[N+](=O)[O-])o1` has an IC50 [1] of 1530 nM.
With `CC1=NN(c2cc(F)c(O)c(F)c2)C(=O)/C1=C\c1ccc(-c2cc(C)c(C)cc2C(F)(F)F)o1` the IC50 [1] was 7310 nM, the inhibition [4] was “Active” and the solubility [5] was “Soluble”. For the same molecule, the solubility [6] was “Soluble”.
With `CC1=NN(c2cc(F)c(O)c(F)c2)C(=O)/C1=C\c1ccc(-c2cccc3c2C(=O)CC3)o1` the IC50 [1] was 3730 nM, the inhibition [4] was “Active” and the solubility [5] was “Soluble”. The solubility [6] was “Soluble”.
For `CC1=NN(c2cc(F)c(O)c(F)c2)C(=O)/C1=C\c1ccc(-c2ccccc2C(F)F)o1`, the IC50 [1] was 6050 nM, the inhibition [4] was “Active” and the solubility [5] was “Soluble”. The solubility [6] was “Soluble”.
Work on `CC1=NN(c2ccc(S(C)(=O)=O)cc2)C(=O)/C1=C\c1ccc(-c2cc(C)c(C)cc2[N+](=O)[O-])o1` yielded an IC50 [1] of 4060 nM.
In the case of `CC1=NN(c2ccc(C(=O)O)cc2)C(=O)C1CC(=O)Nc1cc(C)c(C)cc1[N+](=O)[O-]` (stereo not given), the IC50 [1] is reported as 9610 nM.
With `CC1=NN(c2ccc(C(=O)O)cc2)C(=O)/C1=C\c1ccc(-c2ccccc2P(C)(C)=O)o1` the IC50 [1] was > 10000 nM.
`CC1=NN(c2ccc(C(=O)O)cc2)C(=O)/C1=C\c1ccc(-c2ccccc2OC(F)(F)F)o1` gave an IC50 [1] of 1130 nM, an IC50 [2] of 23.9 µM and an IC50 [3] of 7.67 µM. The inhibition [4] was “Active”.
With `CC1=NN(c2ccc(C(=O)O)cc2)C(=O)/C1=C\c1ccc(-c2ccccc2C(F)F)o1` the IC50 [1] was 1170 nM.
For `Cc1cc(C(=O)c2ccc3c(ccn3-c3ccc(C(=O)O)cc3)c2)c([N+](=O)[O-])cc1C`, the IC50 [1] was > 10000 nM.
In the case of `CC1=NN(c2ccc(C(=O)O)cc2)C(=O)/C1=C(/C)c1ccc(-c2cc(C)c(C)cc2[N+](=O)[O-])o1`, the IC50 [1] is reported as 2070 nM.
With `Cc1cc(C(=O)c2ccc3c(cnn3-c3ccc(C(=O)O)cc3)c2)c([N+](=O)[O-])cc1C` the IC50 [1] was > 10000 nM.
`Cc1cc(-c2ccc(/C=C(\C#N)C(=O)Nc3ccc(C(=O)O)cc3)o2)c([N+](=O)[O-])cc1C` showed an IC50 [1] of 7130 nM.
Molecule `CC1=NN(c2ccc(-c3nn[nH]n3)cc2)C(=O)/C1=C\c1ccc(-c2cc(C)c(C)cc2[N+](=O)[O-])o1` has an IC50 [1] of 670 nM.
For `CC1=NN(c2ccc(C(=O)O)cc2)C(=O)/C1=C\c1ccc(-c2cc(C)c(C)cc2[N+](=O)[O-])o1`, the IC50 [2] was 26.1 µM, the IC50 [3] was 7.8 µM and the Activity [7] was “Active”. For the same molecule, the Activity [8] was “Active”.
In the case of `CC1=NN(c2ccc(P(=O)(O)O)cc2)C(=O)/C1=C\c1ccc(-c2cc(C)c(C)cc2[N+](=O)[O-])o1`, the IC50 [1] is reported as 470 nM.
`CCC1=NN(c2ccc(C(=O)O)cc2)C(=O)/C1=C\c1ccc(-c2cc(C)c(C)cc2[N+](=O)[O-])o1` showed an IC50 [1] of 190 nM.
In the case of `Cc1cc(-c2ccc(/C=C3\C(=O)N(c4ccc(C(=O)O)cc4)N=C3C3CC3)s2)c(C(F)(F)F)cc1C`, the IC50 [1] is reported as 160 nM, the IC50 [2] is reported as 22.5 µM and the IC50 [3] is reported as 5.08 µM. For the same molecule, the IC50 [9] was > 100 µM, the IC50 [10] was > 100 µM and the IC50 [11] was > 100 µM. The IC50 [12] was 25.1 µM, the IC50 [13] was > 100 µM and the inhibition [4] was “Active”. For the same molecule, the Activity [14] was “Not Active”, the Activity [15] was “Not Active” and the Activity [16] was “Active”. For the same molecule, the Activity [17] was “Active”.
In the case of `CC1=NN(c2cc(F)c(O)c(F)c2)C(=O)/C1=C\c1ccc(-c2ccccc2OC(F)(F)F)o1`, the IC50 [1] is reported as > 10000 nM.
